Results as given in US20100196326A1, “METHOD AND SYSTEM FOR BIASING CELLULAR DEVELOPMENT” (priority 2004, published 2010).
Entries after “also recorded” stand apart in the source; their conditions may differ.

Experiments:
Format in all cases: cell-based, human
NT2/D1 cells [1] = experiment: RT-PCR of astrocyte specific and APP gene expression in treated NT2 cells
Procedure: (§1) The NT2/D1 cells were seeded (5×10^6 cells per 10 cm Petri dish) in Dulbecco's modified Eagle's medium (DMEM/F-12; Invitrogen) supplemented with 10% heat inactivated fetal bovine serum (FBS; Invitrogen), 0.4 μl/ml penicillin-streptomycin (Invitrogen), and 4 mM glutamine (Invitrogen) and maintained in a humidified atmosphere of 5% CO2/95% air at 37° C. For astrocytic differentiation, 1×10^6 cells were seeded in a 6 well plate and treated three times a week for 3 weeks with 40 nM STS (Sigma). Cells were split twice a week by short exposure to trypsin/EDTA (Invitrogen). Subsequently, these NT2/A cells were evaluated for expression of astrocytic markers and […] by RT-PCR and western blot analysis. After incubation with a different time and concentration of STS, cells were trypsinized and viable cells were counted with a hemocytometer using trypan blue exclusive assay.
Total RNA was extracted from the cells and 1 μg of the RNA was reverse-transcribed and amplified using the SuperScript™ ONE STEP™ RT-PCR System (Invitrogen) with the following primers.

NT2/D1 cells [2] = experiment: STS-induced astrocytic differentiation, morphology by microscopy; details: 40 nM STS
Procedure: as §1
Typical fluorescent microscopic pictures of the transfected cell were taken 48 hr after the transfection in a 8 well chamber slides. The cells expressing EGFP were detected by green fluorescence.

NT2/D1 cells [3] = experiment: cell viability assay (trypan blue) and DNA fragmentation analysis after STS treatment
Procedure: as §1

In the case of `CN[C@@H]1C[C@H]2O[C@@](C)([C@@H]1OC)n1c3ccccc3c3c4c(c5c6ccccc6n2c5c31)C(=O)NC4` [STS, Staurosporine], the “astrocyte specific gene expression (GFAP, LIF, Delta, Jagged-1, BMP-2, 4, BMP-7, GLT-1/EAAT-2, GLAST/EAAT-1)” value (NT2/D1 cells [1]; 40 nM STS, RT-PCR) is reported as “induced astrocyte specific gene expression”, the APP gene expression (NT2/D1 cells [1]; during STS-induced astro-gliogenesis) is reported as “increased in time-dependent manner; also recorded: higher expression level” and the “induction of NT2/A cells (astrocytic morphology)” value (NT2/D1 cells [2]) is reported as “induced NT2/A cells; also recorded: induces morphological and functional differentiation”. For the same molecule, the “start of mass cell death” value (NT2/D1 cells [3]; 40 nM STS) was 8 h and the “cell viability and DNA fragmentation” value (NT2/D1 cells [3]; STS treatment) was “cell death”.
